Measurements: patent US10875890B2, “Peptide inhibitors targeting the Neisseria gonorrhoeae pivotal anaerobic respiration factor AniA” (priority 2017, dated 2020)
Where two headings read alike, the source gives them in different places. Where a SMILES comes first, the peptide text is derived from it. The star is where a group is joined. Biotin = O=C1N[C@H]2[C@H](CS[C@H]2CCCCC(=O)*)N1; Ahx = NCCCCCC(=O)O

Assays:
[1] = biological target: sAniA (Neisseria gonorrhoeae, UniProt Q02219); test: biochemical
Experimental: Biolayer Interferometry. […] Streptavidin (SA) biosensors (ForteBio) were loaded with C7-3Bio peptides for 10 min. Unloaded tips were used as a control. The sAniA samples were prepared in Kinetic Buffer in concentrations of 50, 100, 500, and 1000 nM. The baseline was established for 240 s and the association and dissociation steps were performed for 500 s. Experiments were performed in three biological replicates with the curve fitting using 2:1 (Heterogeneous Ligand) model and KD value calculations were completed using Octet Data Analysis (version 9).

[2] = biological target: T1, sAniA (recombinant AniA nitrite reductase) (Neisseria gonorrhoeae, UniProt Q02219); test: Inhibition of nitrite reductase activity of purified sAniA (fluorometric DAN nitrite assay); type: biochemical
T1 construct: wild type protein which lacks the N-terminal palmitoylation signal, sAniA; 6xHis (C); made in house; host or cells: Escherichia coli BL21(DE3)
Experimental: (§1) Measurements of Nitrite Reductase Activity with Purified AniA Variants. Enzymatic activity assessments with sAniA and AniA D137A H280A were performed based upon previous work (Boulanger and Murphy 2002, J Mol Biol 315:1111-27; Kakutani et al. 1981, J Biochem 89:463-72) but using a highly sensitive fluorometric assay for nitrite measurements that relies on the reaction of nitrite with 2,3-diaminonapthalene (DAN) to form the fluorescent product, 1-(H)-naphtothriazole (Misko et al. 1993, Anal Biochem 214:11-6). All reactions were conducted under anoxic or microoxic conditions. Fluorescence was measured at excitation of 360/40 nm and emission of 460/40 nm at a gain of 50 using a Synergy HT Plate Reader (BioTek). The sAniA and AniA D137AH280A activities are expressed as the mean reaction rate (nmoles of nitrite reduced/min/[…]) from at least ten independent experiments over the course of a nitrite utilization assay (Shewell et al. 2013, Biochem Biophys Res Commun 431:215-20).
(§2) Determination of Peptides Inhibitory Concentrations Required to Reduce the Signal by 50% (IC50s). […] Nitrite measurements with DAN were performed as described above after pre-incubation of samples for 1 h at room temperature. Control reactions consisted of sAniA alone and AniA D137A H280A treated in the same manner as the experimental samples. Reactions were performed in at least twelve independent experiments. Percent inhibition was calculated using the formula % I=100*(1−(x−y)/(z−y)) where “x”, “y” and “z” are the concentrations of nitrite in samples containing sAniA incubated with synthetic peptides, AniA D137A H280A and sAniA, respectively. The data were analyzed with a nonlinear log(inhibitor) vs. response—variable slope (four parameters) curve-fitting technique (GraphPad) to obtain […]. All experiments were performed in at least ten independent trials.

[3] = tested on: AniA nitrite reductase activity of intact N. gonorrhoeae FA1090 ΔaniA/PlacaniA cells; type: cell-based, Neisseria gonorrhoeae; details: for Inhibition of nitrite reductase activity of intact gonococci: FA1090 ΔaniA/PlacaniA
Experimental: Whole Cell Nitrite Utilization Studies. The FA1090 ΔaniA/Plac::aniA and ΔaniA/Plac::D137AH280A were grown to OD600˜1.0, gently spun down, decanted and re-suspended in GCBL. […] Subsequently, 0.1 mM sodium nitrite was added and the samples were transferred into an anaerobic chamber. After 1 h, nitrite consumption was measured using Griess Reagent (Biotium) as previously described for N. gonorrhoeae nitrite reductase whole cell assay (Shewell et al. 2013, Biochem Biophys Res Commun 431:215-20). Absorbance values were measured at OD545 using a Synergy HT plate reader and nitrite concentration was assessed against a nitrite standard prepared in GCBL. Percent inhibition was calculated using the formula % 1=100*(1−(x−y)/(z−y)) where “x”, “y” and “z” are the concentrations of nitrite in samples containing FA1090 ΔaniA/PlacaniA incubated with synthetic peptides, ΔaniA/PlacaniA D137A H280A and ΔaniA/PlacaniA, respectively. Experiments were performed on at least three separate occasions and mean with SEM are reported.

[4] = biological target: T2, sAniA (recombinant AniA nitrite reductase) (Neisseria gonorrhoeae, UniProt Q02219); test: Inhibition of nitrite reductase activity of purified sAniA (fluorometric DAN nitrite assay); type: biochemical; details: peptide 0 to 100 μM, DAN nitrite consumption assay
T2 construct: wild type protein which lacks the N-terminal palmitoylation signal, sAniA; 6xHis (C); made in house; host or cells: Escherichia coli BL21(DE3)
T2 sequence (Q02219 whole entry, looked up): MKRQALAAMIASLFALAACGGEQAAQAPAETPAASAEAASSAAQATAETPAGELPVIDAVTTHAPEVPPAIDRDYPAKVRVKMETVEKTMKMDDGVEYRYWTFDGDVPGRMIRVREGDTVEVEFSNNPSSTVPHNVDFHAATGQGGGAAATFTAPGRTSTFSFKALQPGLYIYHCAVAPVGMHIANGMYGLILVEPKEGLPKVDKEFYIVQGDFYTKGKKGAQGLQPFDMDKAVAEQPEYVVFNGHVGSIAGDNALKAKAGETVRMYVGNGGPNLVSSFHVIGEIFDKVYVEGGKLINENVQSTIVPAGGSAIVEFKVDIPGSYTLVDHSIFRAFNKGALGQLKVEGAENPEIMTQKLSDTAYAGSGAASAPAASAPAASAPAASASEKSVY
Experimental: as §1, §2

[5] = biological target: T3, sAniA (Neisseria gonorrhoeae, UniProt Q02219); test: Phage ELISA of phage-displayed peptides on sAniA-coated wells; type: binding; details: 10^10 PFU per well, absorbance at 450 nm
T3 construct: wild type protein which lacks the N-terminal palmitoylation signal, sAniA; 6xHis (C); made in house; host or cells: Escherichia coli BL21(DE3)
T3 sequence (Q02219 whole entry, looked up): T2 sequence (Q02219 whole entry, looked up)
Experimental: Phage Enzyme-linked Immunosorbent Assay (Phage ELISA). Individual wells in 96-well transparent plates (Greiner-Bio) were coated with 100 μL of 100 μg/mL of sAniA suspended in 0.1 M NaHCO3pH 8.6 and incubated overnight at 4° C. in an airtight humidified box. After incubation, excess target solution was shaken out and wells were filled with 300 μL of blocking buffer (0.1 M NaHCO3pH 8.6, 5 mg/mL BSA). Following 2 h incubation at 4° C., blocking buffer was removed and wells were washed six times with 200 μL of TBST (50 mM Tris-HCl pH 8.6, 150 mM NaCl, 0.5% Tween). Isolated individual phage amplifications (10^10 PFU) in 100 μl of TBST were incubated at room temperature for 1 h with rocking. All wells were then cleared by shaking and washed six times with 200 μL of TBST. A solution containing Anti-M13 HRP linked-Monoclonal Antibodies (NEB) (1:5,000 dilution in blocking buffer) was distributed at 200 μL per well and incubated with rocking at room temperature for 1 h. Wells were washed six times with TBST and incubated with Turbo TMB-ELISA for 30 min with rocking at room temperature. To stop the reaction, finally 100 μL of 1.78 M H2SO4 was added to each well. […] Data from seven independent experiments are shown with mean and SEM

Compound	Kd [1] [nM]	IC50 [2] [nM]	Inhibition of nitrite reductase activity of intact gonococci ([3]; 0.6 mM peptide) [%]	further results
CC(C)C[C@H](NC(=O)[C@H](CC(N)=O)NC(=O)[C@H](CC(C)C)NC(=O)[C@H](CCCNC(=N)N)NC(=O)[C@H](CS)NC(=O)[C@H](Cc1ccc(O)cc1)NC(=O)[C@H](CC(N)=O)NC(=O)[C@H](CS)NC(=O)[C@H](C)NC(=O)CCCCCNC(=O)CCCC[C@@H]1SC[C@@H]2NC(=O)N[C@@H]21)C(=O)N[C@@H](Cc1c[nH]c2ccccc12)C(=O)NCC(=O)NCC(=O)NCC(=O)N[C@@H](CO)C(N)=O [C7-3Bio] ({Biotin-Ahx}-ACNYCRLNLWGGGS-NH2)	775 ± 88.5	–	–	–
CC(C)C[C@H](NC(=O)[C@H](CC(N)=O)NC(=O)[C@H](CC(C)C)NC(=O)[C@H](CCCNC(=N)N)NC(=O)[C@H](CS)NC(=O)[C@H](Cc1ccccc1)NC(=O)[C@H](CC(N)=O)NC(=O)[C@H](CS)NC(=O)[C@H](C)N)C(=O)N[C@@H](Cc1c[nH]c2ccccc12)C(=O)NCC(=O)NCC(=O)NCC(=O)N[C@@H](CO)C(N)=O [C7-3P] (H-ACNFCRLNLWGGGS-NH2)	–	> 105000	–	–
CC(C)C[C@H](NC(=O)[C@H](CC(N)=O)NC(=O)[C@H](CC(C)C)NC(=O)[C@H](CCCNC(=N)N)NC(=O)[C@H](CS)NC(=O)[C@H](Cc1ccc(O)cc1)NC(=O)[C@H](CC(N)=O)NC(=O)[C@H](CS)NC(=O)[C@H](C)N)C(=O)N[C@@H](Cc1c[nH]c2ccccc12)C(=O)NCC(=O)NCC(=O)NCC(=O)N[C@@H](CO)C(N)=O [C7-3] (H-ACNYCRLNLWGGGS-NH2)	775 ± 88.5	10100	50	–
CC(C)C[C@H](NC(=O)[C@H](CC(N)=O)NC(=O)[C@H](CC(C)C)NC(=O)[C@H](CCCNC(=N)N)NC(=O)[C@H](CS)NC(=O)[C@H](Cc1ccc(O)cc1)NC(=O)[C@H](CO)NC(=O)[C@H](CS)NC(=O)[C@H](C)N)C(=O)N[C@@H](Cc1c[nH]c2ccccc12)C(=O)NCC(=O)NCC(=O)NCC(=O)N[C@@H](CO)C(N)=O [C7-3mod2] (H-ACSYCRLNLWGGGS-NH2)	–	–	90	Inhibition of nitrite reductase activity of intact gonococci ([3]; 0.3 mM peptide): 50%
H-ACNYSRLNLWGGGS-NH2 [C7-3mod1]	–	–	–	Inhibition of AniA in intact gonococci (in words) ([3]; 0.15-0.6 mM tested, concentration not given): inhibited AniA moderately
H-KHYYGGDTTTLWGGGS-NH2 [12-5, synthetic version of the dodecameric phage-display hit 12-5]	–	–	–	Effect on AniA activity of intact gonococci (in words) ([3]; highest tested concentration, 0.6 mM): no effect; Influence on AniA enzymatic activity (in words) [4]: did not influence AniA enzymatic activity; Relative binding of phage-displayed peptide to sAniA (in words) [5]: best binding
